Measured values published in the supplement of paper PMC10733146.

How the values were obtained:
Assay in all cases: viability relative to DMSO control (fraction); higher = less drug effect (more viable cells)
Conditions in all cases: 48 h
[1] = test system: primary ALL patient cells (S088)
Outline: (§1)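 The cells were primary mononuclear tumour cells, either fresh or cryopreserved, isolated by Ficoll from blood or bone marrow or derived from processed lymph node. Each well of a 384-well plate received 4 × 10^4 cells onto compounds pre-plated at five concentrations, with one well per concentration. The medium was RPMI-1640 with penicillin/streptomycin, L-glutamine and human serum, and plates stood at 37 °C and 5% CO2 for 48 h. Viability is reported as CellTiter-Glo luminescence relative to the median of 16 inner DMSO wells.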

[2] = test system: primary AML patient cells (S006)
Outline: as §1

[3] = test system: primary AML patient cells (S009)
Outline: as §1

[4] = test system: primary AML patient cells (S011)
Outline: as §1

[5] = test system: primary AML patient cells (S021)
Outline: as §1

[6] = test system: primary AML patient cells (S055)
Outline: as §1

[7] = test system: primary AML patient cells (S060)
Outline: as §1

[8] = test system: primary AML patient cells (S081)
Outline: as §1

[9] = test system: primary B-PLL patient cells (S016)
Outline: as §1

[10] = test system: primary DLBCL patient cells (S049)
Outline: as §1

[11] = test system: primary DLBCL patient cells (S076)
Outline: as §1

[12] = test system: primary DLBCL patient cells (S082)
Outline: as §1

[13] = test system: primary FL patient cells (S087)
Outline: as §1

[14] = test system: primary MCL patient cells (S041)
Outline: as §1

[15] = test system: primary MCL patient cells (S063)
Outline: as §1

[16] = test system: primary T-NHL patient cells (S058)
Outline: as §1

[17] = test system: primary T-PLL patient cells (S008)
Outline: as §1

Nc1nc(F)nc2c1ncn2[C@@H]1O[C@H](CO)[C@@H](O)[C@@H]1O [Fludarabine] was tested, and the viability ([1]; 0.016 µM) was 1, the viability ([1]; 0.08 µM) was 0.975 and the viability ([1]; 0.4 µM) was 0.715. The viability ([1]; 2 µM) was 0.283, the viability ([1]; 10 µM) was 0.2 and the viability ([2]; 0.016 µM) was 1.02. The viability ([2]; 0.08 µM) was 0.929, the viability ([2]; 0.4 µM) was 0.529 and the viability ([2]; 2 µM) was 0.115. The viability ([2]; 10 µM) was 0.0573, the viability ([3]; 0.016 µM) was 0.952 and the viability ([3]; 0.08 µM) was 0.86. The viability ([3]; 0.4 µM) was 0.59, the viability ([3]; 2 µM) was 0.402 and the viability ([3]; 10 µM) was 0.359. The viability ([4]; 0.016 µM) was 0.942, the viability ([4]; 0.08 µM) was 0.773 and the viability ([4]; 0.4 µM) was 0.543. The viability ([4]; 2 µM) was 0.255, the viability ([4]; 10 µM) was 0.0686 and the viability ([5]; 0.016 µM) was 1.04. For the same compound, the viability ([5]; 0.08 µM) was 0.882, the viability ([5]; 0.4 µM) was 0.579 and the viability ([5]; 2 µM) was 0.277. The viability ([5]; 10 µM) was 0.183, the viability ([6]; 0.016 µM) was 1.05 and the viability ([6]; 0.08 µM) was 0.976. The viability ([6]; 0.4 µM) was 0.937, the viability ([6]; 2 µM) was 0.624 and the viability ([6]; 10 µM) was 0.256. It also gave a viability ([7]; 0.016 µM) of 1.02, a viability ([7]; 0.08 µM) of 1.01 and a viability ([7]; 0.4 µM) of 1.06. For the same compound, the viability ([7]; 2 µM) was 1.03, the viability ([7]; 10 µM) was 0.89 and the viability ([8]; 0.016 µM) was 1.1. For the same compound, the viability ([8]; 0.08 µM) was 1.05, the viability ([8]; 0.4 µM) was 1.1 and the viability ([8]; 2 µM) was 1.02. It also gave a viability ([8]; 10 µM) of 0.89, a viability ([9]; 0.016 µM) of 1.08 and a viability ([9]; 0.08 µM) of 1.01. The viability ([9]; 0.4 µM) was 0.929, the viability ([9]; 2 µM) was 0.535 and the viability ([9]; 10 µM) was 0.0968. The viability ([10]; 0.016 µM) was 1.12, the viability ([10]; 0.08 µM) was 1.11 and the viability ([10]; 0.4 µM) was 1.04. For the same compound, the viability ([10]; 2 µM) was 0.775, the viability ([10]; 10 µM) was 0.375 and the viability ([11]; 0.016 µM) was 1.05. For the same compound, the viability ([11]; 0.08 µM) was 1.07, the viability ([11]; 0.4 µM) was 0.772 and the viability ([11]; 2 µM) was 0.373. The viability ([11]; 10 µM) was 0.203, the viability ([12]; 0.016 µM) was 1.03 and the viability ([12]; 0.08 µM) was 0.94. It also gave a viability ([12]; 0.4 µM) of 0.908, a viability ([12]; 2 µM) of 0.588 and a viability ([12]; 10 µM) of 0.429. For the same compound, the viability ([13]; 0.016 µM) was 1, the viability ([13]; 0.08 µM) was 0.979 and the viability ([13]; 0.4 µM) was 0.871. It also gave a viability ([13]; 2 µM) of 0.661, a viability ([13]; 10 µM) of 0.463 and a viability ([14]; 0.016 µM) of 1.05. It also gave a viability ([14]; 0.08 µM) of 1.01, a viability ([14]; 0.4 µM) of 0.993 and a viability ([14]; 2 µM) of 0.647. For the same compound, the viability ([14]; 10 µM) was 0.149, the viability ([15]; 0.016 µM) was 1.03 and the viability ([15]; 0.08 µM) was 1. The viability ([15]; 0.4 µM) was 0.983, the viability ([15]; 2 µM) was 0.845 and the viability ([15]; 10 µM) was 0.196. It also gave a viability ([16]; 0.016 µM) of 1.15, a viability ([16]; 0.08 µM) of 1.05 and a viability ([16]; 0.4 µM) of 0.829. The viability ([16]; 2 µM) was 0.288, the viability ([16]; 10 µM) was 0.133 and the viability ([17]; 0.016 µM) was 0.988. For the same compound, the viability ([17]; 0.08 µM) was 1.02, the viability ([17]; 0.4 µM) was 0.942 and the viability ([17]; 2 µM) was 0.761. The viability ([17]; 10 µM) was 0.373.
